Source: US6162826A, “Genipin derivative having anti hepatitis B virus activity” (priority 1996, dated 2000)
Where two headings read alike, the source gives them in different places.

What was measured:
[1] = Cytotoxicity test (neutral red dye uptake); format: cell-based; conditions: human, 2.2.15 cells, A510, 2.2.15 cell, cells treated as in Biological Example 1, read-out: IC50 (cytotoxicity)
Method: Further, the present inventors have performed cytotoxicity test using the neutral red dye uptake method to determine that the anti viral effect of the compound of formula (I) […] its general influence on cell growth. As a result, it was identified that the toxicity of the compound of formula (I) is much less than that of ddC.
Cytotoxicity test was carried out in order to determine whether the anti viral effect of the compound according to the present invention is due to the general influence on cell growth or not. In the present experiment, neutral red dye uptake method was used. This is a standard method widely utilized for examining cell survival, by which the variety of relations between viruses such as HSV or HIV and host organism can be understood.
Cytotoxicity test was performed on a 96-well tissue culture plate. Cells were cultured and treated with test compounds in the same manner as Biological Example 1, and the experiments at 4-kind concentrations were repeated threetimes, respectively. Since the relative toxicity can be determined from the uptake level of neutral red dye, quantitative analysis was carried out using the absorbance of internalized dye at 510 nm (A510).
Inhibitory effect of the compound of formula (I) on HBV replication in 2.2.15 cell culture, cytotoxicity, and SI (Selectivity Index, IC50 /ED50)

HBV replication [2] = test: Inhibitory effect on HBV replication in 2.2.15 cell culture; format: cell-based, hepatitis B virus; conditions: for EC50: Hepatitis B virus, 216 h, read-out: ED50 (inhibitory effect on HBV replication); for SI (Selectivity Index, IC50/ED50): cytotoxicity IC50 / HBV ED50, 2.2.15 cell culture
From the text: Inhibitory effect on HBV replication was examined by the use of 2.2.15. cell. 2.2.15. cell line (see, Sells et al., Journal of Virology, 62, 2836-2844, 1988) is a hepatoma cell infected by hepatitis B virus and is a representative standard cell which accurately standardizes all the essential viral characteristics induced by a chronic HBV infection. That is, 2.2.15. cell has some merits such that DNA pattern is stable, replicated virus exists in high level, virus-specific RNA replicate and protein are present in an appropriate size and pattern, the penetrated HBV virion is excreted in high titer, etc. Therefore, it has been recognized as a very suitable cell line which can be used when the anti viral activity of any compound on HBV is evaluated (see, Korba and Milman, Antiviral Research, 15, p217-228, 1991).
First, the present inventors cultured 2.2.15. cell and treated the cell with the novel compound according to the present invention. Then, extraction of DNA and RNA, gel electrophoresis, and hybridization analysis of HBV DNA were carried out to identify the inhibitory activity of the compound of the present invention on HBV replication. Herein, untreated cell was used as a control and ddC (dideoxy cytidine) widely known as a therapeutic agent for hepatitis was used as a comparative compound. As a result, it could be seen that the genipin derivative according to the present invention has an excellent inhibitory effect on replication like the known ddC.
Test for identifying the anti HBV effect of the compound of the present invention was carried out according to a known assay method (see, Korba and Milman, Antiviral Res., 15, 217, 1991). The assay procedure is briefly described in the following.
2.2.15. cell was cultured and preserved in RPM 11640 culture medium containing 5% fetal bovine serum(FBS), 2 mM glutamine and 50 μg/ml gentamicin sulfate. Resistance to G418 of the cell culture and degree of Mycoplasma contamination were examined according to conventional methods.
Cells (1×10^4 /cm^2) were inoculated into a multi-well tissue culture plate, confluently cultured for 7 days, and then kept for 2 or 3 days in confluent condition to stabilize the HBV DNA level. Then, culture medium was replaced 24 hours before cells were exposed to test compound. During the treatment of 9 days, culture medium was replaced and then test compound was added to the fresh culture medium at intervals of 24 hours. Culture medium was collected immediately before the first introduction of test compound, and after 3, 6, 9 days, respectively, and stored at -70° C. before HBV DNA analysis. Then, cytolysis was carried out to analyze the intracellular HBV DNA.
To analyze the extracellular HBV DNA, 0.2 ml of culture medium was incubated in 1M NaOH/10×SSC (1×SSC=0.15M NaCl/0.015M sodium citrate, pH 7.2) for 20 minutes at 25° C. and then immediately applied to a nitrocellulose membrane presoaked in 20×SSC using a slot blot apparatus. The sample was washed twice with 0.5 ml of 1M Tris/2M NaCl (pH 7.2) and once with 0.5 ml of 20×SSC to neutralize, and then it was washed again with 2×SSC and heated at 80° C. for one hour under vacuum. Generally, the cells which have been cultured and preserved in a dish having a diameter of 10 cm are dissolved in 6 ml of lysis buffer, and the […] is prepared according to the method of Korba et al., 1991.
10 μg/lane of cellular DNA sample was digested with restriction enzyme Hind III. Then, the digested sample was applied to 1% agarose gel electrophoresis and transferred to a nitrocellulose membrane.
3.2 kb HBV DNA fragment obtained by EcoR 1-digestion and purification was labeled with [^32 P]dCTP using nick translation method. This labeled fragment was used as a hybridization probe. Conditions for hybridization and post-washing were controlled by referring to the method of Korba et al., 1991 and HBV nucleic acid content among test sample was determined by Ambis beta scanner. […]

[3] = cited from earlier work
HBV replication [4] = conditions: therapeutic agent for hepatitis B; cited from earlier work
[5] = 2.2.15 cell culture, treatment of 9 days

**Q.** What does the source list for `COC(=O)C1=CO[C@@H](OC(=O)c2ccncc2)[C@@H]2C(COC(=O)c3ccncc3)=CC[C@H]12` [Compound 11, Methyl (1S,4aS,7aS)-1-isonicotinoyloxy-7-isonicotinoyloxymethyl-1,4a,5,7a-tetrahydrocyclopenta[c]pyran4-carboxylate]?
**A.** CC50 [1]: > 200 µM; EC50 (HBV replication [2]; [5]): 30 µM; SI (Selectivity Index, IC50/ED50) (HBV replication [2]): > 6.7

**Q.** For `Nc1ccn([C@H]2CC[C@@H](CO)O2)c(=O)n1` [ddC, dideoxy cytidine, reference compound], which CC50 [1] is on record?
**A.** The CC50 was greater than 30 µM.

**Q.** What about the EC50 (HBV replication [2]) of the same compound?
**A.** The EC50 was 15 µM.

**Q.** What about the “SI (Selectivity Index, IC50/ED50)” value (HBV replication [2]) of the same compound?
**A.** The value was greater than 2.0.

**Q.** For `CO[C@@H]1OC=C(C=O)[C@H]2CC=C(C=O)[C@@H]12` [Compound 1, (1R,4aS,7aS)-4,7-diformyl-1-metboxy-1,4a,5,7a-tetrahydrocyclopenta-[c]pyran], which CC50 [1] is on record?
**A.** Its CC50 is 120 µM.

**Q.** And the EC50 (HBV replication [2]; [5])?
**A.** Its EC50 is greater than 500 µM.

**Q.** For `COC(=O)C1=CO[C@@H](O)[C@@H]2C(CO)=CC[C@H]12` [genipin], which “in vivo activities (in words)” value [3] is on record?
**A.** The value was “liver-protection, inhibition of biosynthesis of RNA and protein, detoxification as well as antiviral activity”.

**Q.** And the “inhibition of HBV replication (in words)” value (HBV replication [4])?
**A.** The value was “inhibit the HBV replication”.

**Q.** Which CC50 [1] does the source give for `COc1ccc(COCC2=CO[C@@H](OC)[C@@H]3C(C=NO)=CC[C@H]23)cc1` [Compound 2, (1R,4aS,7aS)-7-hydroxyiminomethyl-1-methoxy-4-(p-methoxybenzyloxymethyl)-1,4a,5,7a-tetrahydrocyclopenta[c]pyran] here?
**A.** The CC50 was 90 µM.

**Q.** And the EC50 (HBV replication [2]; [5])?
**A.** Its EC50 is 30 µM.

**Q.** What about the “SI (Selectivity Index, IC50/ED50)” value (HBV replication [2]) of the same compound?
**A.** The value was 3.0.

**Q.** With `OCC1=C[C@@H](O)[C@@H]2C=CO[C@@H](O[C@@H]3O[C@H](CO)[C@@H](O)[C@H](O)[C@H]3O)[C@H]12` [aucubin] as the compound, how does the “in vivo activities (in words)” value [3] read?
**A.** Its value is “liver-protection, inhibition of biosynthesis of RNA and protein, detoxification as well as antiviral activity”.

**Q.** And the “inhibition of HBV replication (in words)” value (HBV replication [4])?
**A.** The value was “inhibit the HBV replication”.

**Q.** Which CC50 [1] does the source give for `COC(=O)C1=CO[C@@H](OCc2ccccc2)[C@@H]2C(C=O)=CC[C@H]12` [Compound 13, Methyl (1R,4aS,7aS)-1-benzyloxy-7-formyl-1,4a,5,7a-tetrahydrocyclopenta[c]pyran-4-carboxylate] here?
**A.** Its CC50 is 50 µM.

**Q.** And the EC50 (HBV replication [2]; [5])?
**A.** Its EC50 is 20 µM.

**Q.** What about the “SI (Selectivity Index, IC50/ED50)” value (HBV replication [2]) of the same compound?
**A.** Its value is 2.5.

**Q.** Which results are given for `COC(=O)C1=CO[C@@H](OCc2ccccc2)[C@@H]2C(C=NO)=CC[C@H]12` [Compound 14, Methyl (1R,4aS,7aS)-1-benzyloxy-7-hydroxyiminomethyl-1,4a,5,7a-tetrahydrocyclopenta[c]pyran-4-carboxylate]?
**A.** CC50 [1]: 130 µM; EC50 (HBV replication [2]; [5]): 15 µM; SI (Selectivity Index, IC50/ED50) (HBV replication [2]): 8.7
